Data: US20100160314A1, “Small Molecule Inhibitors of Toll-Like Receptor 9” (priority 2006, published 2010)
Read-outs that look alike come from different tables or passages of the source.

Experiments:
Type in all cases: cell-based
TLR9 = target: T1, TLR9 (Homo sapiens, UniProt Q9NR96); experiment: Human PBMC, IFN-α readout using CpG ODN 2395 (TLR9 antagonism)
T1 construct: endogenous in cells; host or cells: freshly isolated human PBMC from donor buffy coats
T1 sequence (Q9NR96 26-1032): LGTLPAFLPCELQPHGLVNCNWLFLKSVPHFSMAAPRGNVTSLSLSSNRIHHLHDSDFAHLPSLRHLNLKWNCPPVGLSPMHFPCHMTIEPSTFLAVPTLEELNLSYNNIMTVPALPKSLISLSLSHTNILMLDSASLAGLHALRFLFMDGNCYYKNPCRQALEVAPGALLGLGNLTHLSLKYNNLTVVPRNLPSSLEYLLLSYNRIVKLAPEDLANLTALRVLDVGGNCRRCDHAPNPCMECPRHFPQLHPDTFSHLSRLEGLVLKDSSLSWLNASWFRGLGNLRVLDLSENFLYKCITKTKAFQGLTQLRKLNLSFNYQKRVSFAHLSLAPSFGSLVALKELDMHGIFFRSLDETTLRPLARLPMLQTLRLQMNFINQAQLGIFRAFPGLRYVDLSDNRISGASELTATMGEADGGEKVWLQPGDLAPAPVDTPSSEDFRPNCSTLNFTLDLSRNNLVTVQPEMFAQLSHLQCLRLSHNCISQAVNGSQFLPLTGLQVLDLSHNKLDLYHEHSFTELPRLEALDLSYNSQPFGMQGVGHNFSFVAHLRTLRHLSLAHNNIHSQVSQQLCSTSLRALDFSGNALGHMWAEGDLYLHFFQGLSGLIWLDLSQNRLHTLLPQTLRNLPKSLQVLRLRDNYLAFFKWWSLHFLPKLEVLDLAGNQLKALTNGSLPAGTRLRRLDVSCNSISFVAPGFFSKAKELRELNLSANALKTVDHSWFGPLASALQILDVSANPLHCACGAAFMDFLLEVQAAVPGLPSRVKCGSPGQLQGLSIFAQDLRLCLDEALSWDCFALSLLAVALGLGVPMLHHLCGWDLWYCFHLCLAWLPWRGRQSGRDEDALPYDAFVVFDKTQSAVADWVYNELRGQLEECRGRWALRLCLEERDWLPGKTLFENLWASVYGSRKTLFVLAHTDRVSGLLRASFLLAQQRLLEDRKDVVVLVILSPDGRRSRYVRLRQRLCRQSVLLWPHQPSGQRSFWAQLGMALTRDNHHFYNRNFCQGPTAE
Description: (§1) Peripheral blood mononuclear cell (PBMC) buffy coat preparations from healthy male and female human donors were obtained from the Institute for Hemostaseology and Transfusion Medicine of the University of Düsseldorf (Germany).
(§2) PBMC were purified by centrifugation over Ficoll-Hypaque (Sigma). Purified PBMC were washed twice with 1×PBS and resuspended in RPMI 1640 culture medium supplemented with 5% (v/v) heat-inactivated human AB serum (BioWhittaker, Belgium) or 10% (v/v) heat-inactivated fetal calf serum (FCS), 1.5 mM L-glutamine, 100 U/ml penicillin and […] streptomycin (all from Sigma, Deisenhofen, Germany).
(§3) Freshly isolated PBMC were resuspended at a concentration of 3×10^6/ml to 5×10^6/ml with RPMI 1640 culture medium and added to 96-well round-bottomed plates (150 μl/well) which had previously received nothing or selected concentrations (typically 10 μM-0.085 nM as 7-fold serial dilutions) of small molecule. To assay antagonist reaction for TLR9, 1 μM CpG oligodeoxynucleotide (ODN) 2395 ([…]; SEQ ID NO:3) was added to wells containing small molecules. To assay antagonist reaction for TLR7 and TLR8, 0.5 μM oligoribonucleotide (ORN) R-1362 ([…]; SEQ ID NO:4) complexed to 5 μg/ml DOTAP was added to wells containing small molecules. To calculate response to CpG ODN 2395 alone or ORN R-1362+DOTAP alone, wells without small molecules were stimulated with CpG ODN 2395 or ORN R-1362+DOTAP.
(§4) Cells were cultured in a humidified incubator at 37° C. for 16 h. Culture supernatants were then collected and, if not used immediately, frozen at −20° C. until required.
(§5) Amounts of cytokines in the supernatants were assessed using enzyme-linked immunosorbent assays (ELISA) specific for IFN-α or TNF-α using commercially available antibodies or kits from BD Pharmingen or Diaclone, respectively. IFN-α readout using CpG 2395 was used to measure TLR9 response. IFN-α readout using ORN R-1362+DOTAP was used to measure TLR7 response. TNF-α release using R-1362 complexed to DOTAP was used to measure TLR8-mediated immune response.

TLR7 = target: T2, TLR7 (Homo sapiens, UniProt Q9NYK1); experiment: Human PBMC, IFN-α readout using ORN R-1362+DOTAP (TLR7 antagonism)
T2 construct: endogenous in cells; host or cells: freshly isolated human PBMC from donor buffy coats
T2 sequence (Q9NYK1 27-1049): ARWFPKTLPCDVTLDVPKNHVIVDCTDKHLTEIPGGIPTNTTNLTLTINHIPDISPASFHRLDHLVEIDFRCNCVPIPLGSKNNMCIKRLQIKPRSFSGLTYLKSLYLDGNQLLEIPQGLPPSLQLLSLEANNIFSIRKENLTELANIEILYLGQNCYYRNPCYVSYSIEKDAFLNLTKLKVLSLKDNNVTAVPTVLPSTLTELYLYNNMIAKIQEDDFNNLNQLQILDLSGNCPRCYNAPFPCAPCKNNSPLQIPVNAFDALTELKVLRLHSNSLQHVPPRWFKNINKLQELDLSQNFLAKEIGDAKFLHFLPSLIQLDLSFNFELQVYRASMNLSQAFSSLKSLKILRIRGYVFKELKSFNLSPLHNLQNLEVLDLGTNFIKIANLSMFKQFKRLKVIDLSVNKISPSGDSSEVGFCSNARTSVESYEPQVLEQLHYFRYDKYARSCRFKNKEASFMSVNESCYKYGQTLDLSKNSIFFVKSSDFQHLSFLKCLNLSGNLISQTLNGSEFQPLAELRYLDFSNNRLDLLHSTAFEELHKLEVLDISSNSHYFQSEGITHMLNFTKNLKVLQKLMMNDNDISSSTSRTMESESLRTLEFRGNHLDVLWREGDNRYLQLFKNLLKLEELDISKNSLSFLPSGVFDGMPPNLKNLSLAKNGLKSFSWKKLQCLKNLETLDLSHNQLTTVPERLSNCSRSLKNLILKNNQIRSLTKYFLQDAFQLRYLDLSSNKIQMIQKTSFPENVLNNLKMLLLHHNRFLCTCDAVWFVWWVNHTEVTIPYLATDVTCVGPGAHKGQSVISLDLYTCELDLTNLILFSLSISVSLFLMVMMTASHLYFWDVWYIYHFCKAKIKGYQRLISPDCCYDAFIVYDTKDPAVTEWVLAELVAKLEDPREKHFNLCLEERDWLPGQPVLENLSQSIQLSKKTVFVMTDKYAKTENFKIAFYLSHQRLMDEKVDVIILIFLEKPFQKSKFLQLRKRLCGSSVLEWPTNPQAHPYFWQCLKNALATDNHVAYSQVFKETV
Description: as §1, §2, §3, §4, §5

TLR8 = target: T3, TLR8 (Homo sapiens, UniProt Q9NR97); experiment: Human PBMC, TNF-α release using ORN R-1362+DOTAP (TLR8 antagonism)
T3 construct: endogenous in cells; host or cells: freshly isolated human PBMC from donor buffy coats
T3 sequence (Q9NR97 27-1041): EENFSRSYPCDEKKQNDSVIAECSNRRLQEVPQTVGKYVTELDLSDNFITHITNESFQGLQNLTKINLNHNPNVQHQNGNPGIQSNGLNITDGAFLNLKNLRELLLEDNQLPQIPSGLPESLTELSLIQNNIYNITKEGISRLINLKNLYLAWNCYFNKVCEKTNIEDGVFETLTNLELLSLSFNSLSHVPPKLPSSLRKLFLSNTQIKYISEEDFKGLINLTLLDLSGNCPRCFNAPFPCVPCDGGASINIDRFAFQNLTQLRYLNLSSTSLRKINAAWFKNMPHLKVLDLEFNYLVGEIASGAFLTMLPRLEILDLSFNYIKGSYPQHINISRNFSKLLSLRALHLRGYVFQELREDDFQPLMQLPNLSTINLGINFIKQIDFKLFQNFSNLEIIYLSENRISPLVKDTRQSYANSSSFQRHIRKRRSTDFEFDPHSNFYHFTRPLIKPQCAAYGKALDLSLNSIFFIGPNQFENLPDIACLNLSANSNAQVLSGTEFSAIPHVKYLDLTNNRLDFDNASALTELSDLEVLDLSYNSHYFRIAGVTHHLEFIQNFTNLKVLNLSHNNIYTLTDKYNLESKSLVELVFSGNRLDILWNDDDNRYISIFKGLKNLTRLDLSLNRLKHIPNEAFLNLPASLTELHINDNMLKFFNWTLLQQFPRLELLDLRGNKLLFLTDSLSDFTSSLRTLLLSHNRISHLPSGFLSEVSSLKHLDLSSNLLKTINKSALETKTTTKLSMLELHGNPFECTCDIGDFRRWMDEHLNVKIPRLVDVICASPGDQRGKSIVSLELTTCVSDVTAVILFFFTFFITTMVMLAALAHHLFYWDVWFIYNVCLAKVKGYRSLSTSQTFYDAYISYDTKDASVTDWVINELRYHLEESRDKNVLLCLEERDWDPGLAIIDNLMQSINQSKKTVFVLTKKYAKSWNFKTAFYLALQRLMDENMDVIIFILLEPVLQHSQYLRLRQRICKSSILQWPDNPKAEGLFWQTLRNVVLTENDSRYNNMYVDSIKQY
Description: as §1, §2, §3, §4, §5

[1] = in vitro testing as described in Example 63, read-out: TLR9 IC50, Experimental
[2] = in vitro testing as described in Example 63, read-out: TLR7 IC50, Experimental
[3] = in vitro testing as described in Example 63, read-out: TLR8 IC50, Experimental

| IC50 (TLR9; [1]) [nM] | IC50 (TLR7; [2]) [nM] | IC50 (TLR8; [3]) [nM] | SMILES | IC50 (TLR9; human PBMC, 1 μM CpG ODN 2395, 16 h, IFN-α ELISA, read-out: IC50 TLR9, Experimental) [nM] | IC50 (TLR7; human PBMC, 0.5 μM ORN R-1362 + 5 μg/ml DOTAP, 16 h, IFN-α ELISA, read-out: IC50 TLR7, Experimental) [nM] | IC50 (TLR8; human PBMC, 0.5 μM ORN R-1362 + 5 μg/ml DOTAP, 16 h, TNF-α ELISA, read-out: IC50 TLR8, Experimental) [nM] |
| --- | --- | --- | --- | --- | --- | --- |
| 200 | 200 | 600 | CN1CCN(c2cc(NCCN3CCOCC3)c3cc(-c4ccccc4)ccc3n2)CC1 [6 (CI)] |  |  |  |
|  |  |  | CN1CCN(c2ccc(-c3cc(NCCN4CCOCC4)c4ncccc4n3)cc2)CC1 [6 (A3I)] | 73 | 720 | 110 |
| 78 | 76 | 18 | CN1CCN(c2ccc3nc(-c4ccccc4)nc(NCCN4CCOCC4)c3c2)CC1 [Compound 8 (Example 72)] |  |  |  |
| 72 | 75 | 28 | CN1CCN(c2ccc3nc(-c4ccccc4)cc(NCCN4CCOCC4)c3c2)CC1 [5 (DI)] |  |  |  |

| SMILES | IC50 (TLR9; [1]) [nM] | IC50 (TLR7; [2]) [nM] | IC50 (TLR8; [3]) [nM] | IC50 (TLR9; human PBMC, 1 μM CpG ODN 2395, 16 h, IFN-α ELISA, read-out: IC50 TLR9, Experimental) [nM] | IC50 (TLR7; human PBMC, 0.5 μM ORN R-1362 + 5 μg/ml DOTAP, 16 h, IFN-α ELISA, read-out: IC50 TLR7, Experimental) [nM] | IC50 (TLR8; human PBMC, 0.5 μM ORN R-1362 + 5 μg/ml DOTAP, 16 h, TNF-α ELISA, read-out: IC50 TLR8, Experimental) [nM] |
| --- | --- | --- | --- | --- | --- | --- |
| CN1CCN(c2ccc(-c3cc(NCCN4CCOCC4)c4ncccc4n3)cc2)CC1 [6 (CaI)] | 250 | 790 | 140 |  |  |  |
| CN1CCN(c2ccc(-c3cc(NCCN4CCOCC4)c4ncccc4n3)cc2)CC1 [6 (BIV)] | 44 | 70 | 100 |  |  |  |
